From ChEMBL document CHEMBL6092194, “Development of membrane-targeting chalcone derivatives as antibacterial agents against multidrug-resistant bacteria” (Eur J Med Chem, 2024)
Active and inactive are the calls of the source. No cut-off for these calls is given here.

How the values were obtained:
Staphylococcus aureus [1] = assay: Antibacterial activity against Staphylococcus aureus ATCC43300 infected in sepsis mouse model assessed as log reduction in bacterial load in spleen at 10 mg/kg pre-infected with bacteria for 1 hrs followed by compound administration at 12 hrs interval for 2 days relative to control; format: functional; settings: time 2 day
Cell membrane [2] = assay: Disruption of cell membrane in Staphylococcus aureus ATCC43300 assessed as increase in DNA leakage; settings: dose 1-8 µg/ml
Staphylococcus aureus [3] = assay: Antibacterial activity against Staphylococcus aureus ATCC43300 infected in sepsis mouse model assessed as log reduction in bacterial load in blood at 10 mg/kg pre-infected with bacteria for 1 hrs followed by compound administration at 12 hrs interval for 2 days relative to control; format: functional; settings: time 2 day
Escherichia coli [4] = assay: Bactericidal activity against Escherichia coli ATCC25922 assessed as bacterial killing at 8 times of MIC measured after 8 hrs by time-kill kinetics assay relative to control; format: functional
Staphylococcus aureus [5] = assay: Antibacterial activity against Staphylococcus aureus ATCC43300 infected in sepsis mouse model assessed as log reduction in bacterial load in liver at 10 mg/kg pre-infected with bacteria for 1 hrs followed by compound administration at 12 hrs interval for 2 days relative to control; format: functional; settings: time 2 day
[6] = Cytotoxicity against human L02 cells assessed as cell viability at 8 microg/ml by CCK8 assay relative to control; format: toxicity, cell-based; settings: at 8 µg/mL, read-out: Activity
Escherichia coli [7] = assay: (§1) Antibacterial activity against Escherichia coli ATCC25922 infected in sepsis mouse model assessed as reduction in kidney inflammation at 5 to 10 mg/kg pre-infected with bacteria for 1 hrs followed by compound administration at 12 hrs interval for 2 days by H and E staining based analysis; format: functional, organism-based; settings: dose 5-10 mg/kg, time 2.0 day
Staphylococcus aureus [8] = assay: Bactericidal activity against Staphylococcus aureus ATCC43300 in presence of 50% serum; format: functional
Escherichia coli [9] = assay: as §1, with “inflammatory cell infiltration in spleen” for “kidney inflammation”, “at” for “at 5 to”; format: functional, organism-based; settings: time 2.0 day
Staphylococcus aureus [10] = assay: Antibiofilm activity against Staphylococcus aureus ATCC43300 assessed as inhibition of biofilm formation; format: functional, organism-based
Escherichia coli [11] = assay: Antibacterial activity against Escherichia coli ATCC25922 infected in sepsis mouse model assessed as log reduction in bacterial load in kidney at 5 mg/kg pre-infected with bacteria for 1 hrs followed by compound administration at 12 hrs interval for 2 days relative to control; format: functional; settings: time 2 day
Staphylococcus aureus [12] = assay: Antibiofilm activity against Staphylococcus aureus ATCC43300 assessed as inhibition of biofilm formation at 1 microg/ml relative to control; format: functional
Escherichia coli [13] = assay: (§2) Antibacterial activity against Escherichia coli ATCC25922 infected in sepsis mouse model assessed as reduction in inflammatory cell infiltration in kidney at 10 mg/kg pre-infected with bacteria for 1 hrs followed by compound administration at 12 hrs interval for 2 days by H and E staining based analysis; format: functional, organism-based; settings: time 2.0 day
Staphylococcus aureus [14] = assay: Bactericidal activity against Staphylococcus aureus ATCC43300 in Mueller Hinton Broth; format: functional
Escherichia coli [15] = assay: Induction of morphological changes in Escherichia coli ATCC25922 assessed as disruption of cell membrane by scanning electron microscopic analysis; format: functional, organism-based
[16] = Ratio of MBC for Escherichia coli ATCC25922 in presence of 50% plasma to MBC for Escherichia coli ATCC25922 in Mueller Hinton Broth; format: functional
Escherichia coli [17] = assay: Antibacterial activity against Escherichia coli ATCC25922 infected in sepsis mouse model assessed as reduction in liver inflammation at 5 to 10 mg/kg pre-infected with bacteria for 1 hrs followed by compound administration at 12 hrs interval for 2 days by H and E staining based analysis; format: functional, organism-based; settings: dose 5-10 mg/kg, time 2.0 day
Escherichia coli [18] = assay: as §2, with “liver” for “kidney”; format: functional, organism-based; settings: time 2.0 day
Escherichia coli [19] = assay: Antibiofilm activity against Escherichia coli ATCC25922 assessed as inhibition of biofilm formation; format: functional, organism-based
Staphylococcus aureus [20] = assay: Drug resistance, ratio of MIC for Staphylococcus aureus ATCC43300 measured after 20 passages to MIC for Staphylococcus aureus ATCC43300 measured after first exposure; format: functional
Escherichia coli [21] = assay: Antibacterial activity against Escherichia coli ATCC25922 infected in sepsis mouse model assessed as reduction in kidney damage at 5 to 10 mg/kg pre-infected with bacteria for 1 hrs followed by compound administration at 12 hrs interval for 2 days by H and E staining based analysis; format: functional, organism-based; settings: dose 5-10 mg/kg, time 2.0 day
Staphylococcus aureus [22] = assay: Antibacterial activity against Staphylococcus aureus ATCC43300 infected in sepsis mouse model assessed as reduction in spleen inflammation at 5 to 10 mg/kg pre-infected with bacteria for 1 hrs followed by compound administration at 12 hrs interval for 2 days by H and E staining based analysis; format: functional, organism-based; settings: dose 5-10 mg/kg, time 2.0 day
Staphylococcus aureus [23] = assay: Induction of morphological changes in Staphylococcus aureus ATCC43300 assessed as rough appearance of cell membrane by scanning electron microscopic analysis; format: functional, organism-based
Escherichia coli [24] = assay: Antibacterial activity against Escherichia coli ATCC25922 infected in sepsis mouse model assessed as reduction in spleen inflammation at 5 to 10 mg/kg pre-infected with bacteria for 1 hrs followed by compound administration at 12 hrs interval for 2 days by H and E staining based analysis; format: functional, organism-based; settings: dose 5-10 mg/kg, time 2.0 day
Cell membrane [25] = assay: Disruption of cell membrane in Staphylococcus aureus ATCC43300 assessed as appearance of blue fluorescence by DAPI staining based fluorescence microscopic analysis
Staphylococcus aureus [26] = assay: Antibacterial activity against Staphylococcus aureus ATCC43300 infected in sepsis mouse model assessed as log reduction in bacterial load in kidney at 10 mg/kg pre-infected with bacteria for 1 hrs followed by compound administration at 12 hrs interval for 2 days relative to control; format: functional; settings: time 2 day
[27] = Cytotoxicity against human L02 cells assessed as cell survival at 16 microg/ml by CCK8 assay relative to control; format: toxicity, cell-based; settings: at 16 µg/mL, read-out: Survival
Escherichia coli [28] = assay: Antibacterial activity against Escherichia coli ATCC25922 infected in sepsis mouse model assessed as reduction in spleen damage at 5 to 10 mg/kg pre-infected with bacteria for 1 hrs followed by compound administration at 12 hrs interval for 2 days by H and E staining based analysis; format: functional, organism-based; settings: dose 5-10 mg/kg, time 2.0 day
Staphylococcus aureus [29] = assay: Bactericidal activity against Staphylococcus aureus ATCC43300 assessed as elimination of bacteria at 8 microg/ml measured within 4 hrs by time-kill kinetics assay relative to control; format: functional; settings: dose 8 µg/ml
Cell membrane [30] = assay: Induction of outer membrane permeabilization in Escherichia coli ATCC25922 assessed as increase in fluorescence intensity incubated for 20 mins by NPN uptake assay; format: subcellular; settings: dose 0.5-8 µg/ml
[31] = Cytotoxicity against human L02 cells by CCK8 assay; format: toxicity, cell-based
Staphylococcus aureus [32] = assay: Bactericidal activity against Staphylococcus aureus ATCC43300 in presence of 50% plasma; format: functional
Escherichia coli [33] = assay: Antibacterial activity against Escherichia coli ATCC25922 infected in sepsis mouse model assessed as log reduction in bacterial load in blood at 5 mg/kg pre-infected with bacteria for 1 hrs followed by compound administration at 12 hrs interval for 2 days relative to control; format: functional; settings: time 2 day
Staphylococcus aureus [34] = assay: Antibacterial activity against Staphylococcus aureus ATCC43300 infected in sepsis mouse model assessed as reduction in kidney inflammation at 5 to 10 mg/kg pre-infected with bacteria for 1 hrs followed by compound administration at 12 hrs interval for 2 days by H and E staining based analysis; format: functional, organism-based; settings: dose 5-10 mg/kg, time 2.0 day

## CCCCCCOc1cc[n+](CCCOc2ccc(/C=C/C(=O)c3ccc(OCCC[n+]4ccc(OCCCCCC)cc4)cc3)cc2)cc1.[Br-].[Br-]
Staphylococcus aureus [1]
  log(activity): 1.52
Cell membrane [2]
  Activity: Dose-dependent-effect
Staphylococcus aureus [3]
  log(activity): 1.61
Escherichia coli [4]
  Activity: 100%
Staphylococcus aureus [5]
  log(activity): 2.13
[6]
  viability at 8 microg/ml: 93.9%
Escherichia coli [7]
  Activity: Active
Staphylococcus aureus [8]
  MBC: 16 µg/mL
Escherichia coli [9]
  Activity: inactive
Staphylococcus aureus [10]
  Activity: Dose-dependent-effect
Escherichia coli [11]
  log(activity): 1.65
Staphylococcus aureus [12]
  inhibition at 1 µg/mL: 6.91%
Escherichia coli [13]
  Activity: inactive
Staphylococcus aureus [14]
  MBC: 4 µg/mL
Escherichia coli [15]
  Activity: Active
[16]
  Ratio: <2
Escherichia coli [17]
  Activity: Active
Escherichia coli [18]
  Activity: inactive
Escherichia coli [19]
  Activity: Dose-dependent-effect
Staphylococcus aureus [20]
  Ratio: 4
Escherichia coli [21]
  Activity: Active
Staphylococcus aureus [22]
  Activity: Active
Staphylococcus aureus [23]
  Activity: Active
Escherichia coli [24]
  Activity: Active
Cell membrane [25]
  Activity: Active
Staphylococcus aureus [26]
  log(activity): 1.76
[27]
  viability at 16 microg/ml: > 83%
Escherichia coli [28]
  Activity: Active
Staphylococcus aureus [29]
  Activity: >=99.9%
Cell membrane [30]
  Activity: Dose-dependent-effect
[31]
  CC50: 25.9 µg/mL
Staphylococcus aureus [32]
  MBC: 4 µg/mL
Escherichia coli [33]
  log(activity): 0.71
Staphylococcus aureus [34]
  Activity: Active
